Experimental data published in patent publication US20130123222A1, “Synergistic Anti-Cancer Activity of SR16388 with Anti-Mitotic Drugs” (SRI INTERNATIONAL, INC., priority 2011, published 2013).

Key:
Format in all cases: cell-based
[1] = test system: various cancer cell lines; assay: 11×7 synergism hit rate over all cell lines (by algorism); settings: for % Hit rate: combination with SR16388, identified by algorism, all cell lines; for interaction with SR16388 in 11×7 experiments: in combination with SR16388
Text: (§1) SR16388 was synthesized in house.
(§2) Within the same type of cancer cells, some cell lines have more synergistic hits than others. Melanoma and breast cancer cell lines had the highest hit rate.

HCT15 = assay: 11×7 synergism hit rate; settings: Colon Cancer HCT15, combination with SR16388
Text: as §1, §2

SKMEL2 = assay: 11×7 synergism hit rate; settings: Melanoma SKMEL2, combination with SR16388
Text: as §1, §2

SW620 = assay: 11×7 synergism hit rate; settings: Colon Cancer SW620, combination with SR16388
Text: as §1, §2

NCIH23 = assay: 11×7 synergism hit rate; settings: NSCLC NCIH23, combination with SR16388
Text: as §1, §2

HL60 = assay: 11×7 synergism hit rate; settings: Leukemia HL60, combination with SR16388
Text: as §1, §2

RPMI8226 = assay: 11×7 synergism hit rate; settings: Leukemia RPMI8226, combination with SR16388
Text: as §1, §2

7860 = assay: 11×7 synergism hit rate; settings: Renal Cancer 7860, combination with SR16388
Text: as §1, §2

HCC2998 = assay: 11×7 synergism hit rate; settings: Colon Cancer HCC2998, combination with SR16388
Text: as §1, §2

UACC257 = assay: 11×7 synergism hit rate; settings: Melanoma UACC257, combination with SR16388
Text: as §1, §2

HT29 = assay: 11×7 synergism hit rate; settings: Colon Cancer HT29, combination with SR16388
Text: as §1, §2

OVCAR5 = assay: 11×7 synergism hit rate; settings: Ovarian Cancer OVCAR5, combination with SR16388
Text: as §1, §2

UACC62 = assay: 11×7 synergism hit rate; settings: Melanoma UACC62, combination with SR16388
Text: as §1, §2

DU145 = assay: 11×7 synergism hit rate; settings: Prostate Cancer DU145, combination with SR16388
Text: as §1, §2

SF268 = assay: 11×7 synergism hit rate; settings: CNS Cancer SF268, combination with SR16388
Text: as §1, §2

OVCAR8 = assay: 11×7 synergism hit rate; settings: Ovarian Cancer OVCAR8, combination with SR16388
Text: as §1, §2

SR = assay: 11×7 synergism hit rate; settings: Leukemia SR, combination with SR16388
Text: as §1, §2

HS578T = assay: 11×7 synergism hit rate; settings: Breast Cancer HS578T, combination with SR16388
Text: as §1, §2

A498 = assay: 11×7 synergism hit rate; settings: Renal Cancer A498, combination with SR16388
Text: as §1, §2

U251 = assay: 11×7 synergism hit rate; settings: CNS Cancer U251, combination with SR16388
Text: as §1, §2

MDAMB435 = assay: 11×7 synergism hit rate; settings: Melanoma MDAMB435, combination with SR16388
Text: as §1, §2

MOLT4 = assay: 11×7 synergism hit rate; settings: Leukemia MOLT4, combination with SR16388
Text: as §1, §2

SN12C = assay: 11×7 synergism hit rate; settings: Renal Cancer SN12C, combination with SR16388
Text: as §1, §2

SF539 = assay: 11×7 synergism hit rate; settings: CNS Cancer SF539, combination with SR16388
Text: as §1, §2

NCIH226 = assay: 11×7 synergism hit rate; settings: NSCLC NCIH226, combination with SR16388
Text: as §1, §2

K562 = assay: 11×7 synergism hit rate; settings: Leukemia K562, combination with SR16388
Text: as §1, §2

SNB75 = assay: 11×7 synergism hit rate; settings: CNS Cancer SNB75, combination with SR16388
Text: as §1, §2

T47D = assay: 11×7 synergism hit rate; settings: Breast Cancer T47D, combination with SR16388
Text: as §1, §2

NCIH322M = assay: 11×7 synergism hit rate; settings: NSCLC NCIH322M, combination with SR16388
Text: as §1, §2

TK10 = assay: 11×7 synergism hit rate; settings: Renal Cancer TK10, combination with SR16388
Text: as §1, §2

ADRRES = assay: 11×7 synergism hit rate; settings: Ovarian Cancer ADRRES, combination with SR16388
Text: as §1, §2

HOP92 = assay: 11×7 synergism hit rate; settings: NSCLC HOP92, combination with SR16388
Text: as §1, §2

EKVX = assay: 11×7 synergism hit rate; settings: NSCLC EKVX, combination with SR16388
Text: as §1, §2

CCRFCEM = assay: 11×7 synergism hit rate; settings: Leukemia CCRFCEM, combination with SR16388
Text: as §1, §2

U031 = assay: 11×7 synergism hit rate; settings: Renal Cancer U031, combination with SR16388
Text: as §1, §2

CAKI1 = assay: 11×7 synergism hit rate; settings: Renal Cancer CAKI1, combination with SR16388
Text: as §1, §2

MCF7 = assay: 11×7 synergism hit rate; settings: Breast Cancer MCF7, combination with SR16388
Text: as §1, §2

A549 = assay: 11×7 synergism hit rate; settings: NSCLC A549, combination with SR16388
Text: as §1

cancer cell lines = assay: Combination cell viability assay, general observations on ratios and confirmed synergy; settings: for interaction with SR16388 (confirmed): in combination with SR16388
Method: Cells were treated with compounds alone or in combination for three days and CellTiter-Glo® Luminescent Cell Viability Assay (Promega Corp.) was used as the endpoint to measure cell viability. […] Cells were harvested on Day-1 (FIG. 1A) and re-supspended to the corresponding seeding density and seeded with Wellmate (ThermoFisher) to 384 plates (BD or GBO). […] Master plates were made with Janus (PerkinElmer), then further diluted and added to the cell plates with Matrix Platemate (Thermo) on Day 0. CellTiter-Glo® Luminescent Cell Viability Assay (Promega Corp.) was used to measure ATP as an indicator of viable cells on Day 3 using Envision (PerkinElmer) and back up reader Analyst HT (MDS) and Gen5 (BioTek). Relative Luminescent Units (RLU) were plotted against corresponding drug concentrations and fitted with standard four parameter sigmoidal curve with custom coded R program or Calcusyn (Biosoft, Cambridge, UK).

SMILES | % Hit rate [1] | interaction with SR16388 in 11×7 experiments [1] | % Hit rate (HCT15) | % Hit rate (SKMEL2) | % Hit rate (SW620) | % Hit rate (NCIH23) | % Hit rate (HL60) | % Hit rate (RPMI8226) | % Hit rate 7860 | % Hit rate (HCC2998) | % Hit rate (UACC257) | % Hit rate (HT29) | % Hit rate (OVCAR5) | % Hit rate (UACC62) | % Hit rate (DU145) | % Hit rate (SF268) | % Hit rate (OVCAR8) | % Hit rate (SR) | % Hit rate (HS578T) | % Hit rate (A498) | other results
CC[C@]1(O)C[C@@H]2CN(CCc3c([nH]c4ccccc34)[C@@](C(=O)OC)(c3cc4c(cc3OC)N(C)[C@H]3[C@@](O)(C(=O)OC)[C@H](OC(C)=O)[C@]5(CC)C=CCN6CC[C@]43[C@@H]65)C2)C1 [Vinblastine] | 4.94% | synergistic effect | 10% | 3% | 8% | 4% | 16% | 0% | 10% | 6% | 6% | 8% | 0% | 10% | 0% | 6% | 5% | 0% | 8% | 4% | % Hit rate (U251): 0%; % Hit rate (MDAMB435): 4%; % Hit rate (MOLT4): 8%; % Hit rate (SN12C): 1%; % Hit rate (SF539): 8%; % Hit rate (NCIH226): 8%; % Hit rate (K562): 3%; % Hit rate (SNB75): 3%; % Hit rate (T47D): 9%; % Hit rate (NCIH322M): 3%; % Hit rate (TK10): 4%; % Hit rate (ADRRES): 0%; % Hit rate (HOP92): 6%; % Hit rate (EKVX): 1%; % Hit rate (CCRFCEM): 3%; % Hit rate (U031): 3%; % Hit rate (CAKI1): 12%; % Hit rate (MCF7): 17%; % Hit rate (A549): 0%
CC(=O)O[C@H]1C(=O)[C@@]2(C)[C@H]([C@H](OC(=O)c3ccccc3)[C@]3(O)C[C@H](OC(=O)[C@H](O)[C@@H](NC(=O)c4ccccc4)c4ccccc4)C(C)=C1C3(C)C)[C@]1(OC(C)=O)CO[C@@H]1C[C@@H]2O [Paclitaxel] | 14.88% | synergistic effect | 14% | 29% | 9% | 4% | 25% | 5% | 22% | 12% | 35% | 22% | 6% | 25% | 3% | 22% | 13% | 1% | 23% | 10% | % Hit rate (U251): 12%; % Hit rate (MDAMB435): 12%; % Hit rate (MOLT4): 21%; % Hit rate (SN12C): 13%; % Hit rate (SF539): 19%; % Hit rate (NCIH226): 27%; % Hit rate (K562): 12%; % Hit rate (SNB75): 13%; % Hit rate (T47D): 19%; % Hit rate (NCIH322M): 17%; % Hit rate (TK10): 13%; % Hit rate (ADRRES): 1%; % Hit rate (HOP92): 10%; % Hit rate (EKVX): 0%; % Hit rate (CCRFCEM): 14%; % Hit rate (U031): 9%; % Hit rate (CAKI1): 22%; % Hit rate (MCF7): 31%; interaction with SR16388 (confirmed) (cancer cell lines): synergistic anti-proliferation effect; interaction with more paclitaxel in the mixture (cancer cell lines; more paclitaxel than SR16388:Paclitaxel 67:33): antagonist interactions
CC(=O)O[C@@]12CO[C@@H]1C[C@H](O)[C@@]1(C)C(=O)[C@H](O)C3=C(C)[C@@H](OC(=O)[C@H](O)[C@@H](NC(=O)OC(C)(C)C)c4ccccc4)C[C@@](O)([C@@H](OC(=O)c4ccccc4)[C@H]21)C3(C)C [Docetaxel] | 10.69% | synergistic effect | 12% | 12% | 8% | 5% | 21% | 1% | 10% | 6% | 18% | 21% | 1% | 16% | 1% | 18% | 6% | 0% | 22% | 4% | % Hit rate (U251): 12%; % Hit rate (MDAMB435): 14%; % Hit rate (MOLT4): 13%; % Hit rate (SN12C): 8%; % Hit rate (SF539): 13%; % Hit rate (NCIH226): 19%; % Hit rate (K562): 0%; % Hit rate (SNB75): 5%; % Hit rate (T47D): 19%; % Hit rate (NCIH322M): 14%; % Hit rate (TK10): 10%; % Hit rate (ADRRES): 3%; % Hit rate (HOP92): 4%; % Hit rate (EKVX): 0%; % Hit rate (CCRFCEM): 12%; % Hit rate (U031): 4%; % Hit rate (CAKI1): 16%; % Hit rate (MCF7): 19%; % Hit rate (A549): 4%; interaction with SR16388 (confirmed) (cancer cell lines): synergistic anti-proliferation effect
CC[C@]1(O)C[C@H]2CN(CCc3c([nH]c4ccccc34)[C@@](C(=O)OC)(c3cc4c(cc3OC)N(C=O)[C@H]3[C@@](O)(C(=O)OC)[C@H](OC(C)=O)[C@]5(CC)C=CCN6CC[C@]43[C@@H]65)C2)C1 [Vincristine] | 10.91% | synergistic effect | 9% | 25% | 5% | 4% | 5% | 0% | 18% | 4% | 25% | 10% | 1% | 23% | 1% | 18% | 10% | 0% | 17% | 12% | % Hit rate (U251): 4%; % Hit rate (MDAMB435): 6%; % Hit rate (MOLT4): 16%; % Hit rate (SN12C): 14%; % Hit rate (SF539): 12%; % Hit rate (NCIH226): 8%; % Hit rate (K562): 8%; % Hit rate (SNB75): 9%; % Hit rate (T47D): 16%; % Hit rate (NCIH322M): 18%; % Hit rate (TK10): 14%; % Hit rate (ADRRES): 1%; % Hit rate (HOP92): 8%; % Hit rate (EKVX): 1%; % Hit rate (CCRFCEM): 8%; % Hit rate (U031): 12%; % Hit rate (CAKI1): 13%; % Hit rate (MCF7): 25%; % Hit rate (A549): 10%; interaction with SR16388 (confirmed) (cancer cell lines): synergistic anti-proliferation effect
